Where “and” joins values, the source holds several entries; their conditions need not be identical. Identical values can stand only once.
Tests used:
NT5C1A = molecular target: T1, NT5C1A (Homo sapiens, UniProt Q9BXI3); test: In vitro phosphatase activity assay, NT5C1A (AMP); format: biochemical; details: DMSO control = 100, read-out: NT5C1A activity on AMP in presence of CP relative to DMSO controls
T1 construct: purchased Origene #TP324617
T1 sequence (Q9BXI3 1-368): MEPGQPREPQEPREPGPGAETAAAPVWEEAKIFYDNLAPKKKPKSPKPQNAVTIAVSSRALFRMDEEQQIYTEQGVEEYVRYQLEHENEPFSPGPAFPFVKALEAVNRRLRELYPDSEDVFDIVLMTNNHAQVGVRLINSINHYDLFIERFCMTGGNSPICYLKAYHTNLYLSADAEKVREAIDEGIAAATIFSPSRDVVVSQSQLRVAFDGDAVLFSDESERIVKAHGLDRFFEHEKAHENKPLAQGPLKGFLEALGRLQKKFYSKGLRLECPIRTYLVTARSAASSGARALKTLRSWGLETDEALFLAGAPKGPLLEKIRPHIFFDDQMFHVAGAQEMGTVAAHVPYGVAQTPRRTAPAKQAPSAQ
Method: Purified human NT5C1A (NM_032526, #TP324617) and purified human PHOSPHO1 (NM_178500, #TP314434) were from Origene. […] Data were analyzed with GraphPad Prism 7.04. […] Data are mean values ± S.E.M. of n=3 independent experiments.

HT1080 cells = test: NMR quantification of cellular metabolites; format: cell-based, human
Method: For NMR experiments, 2.7 million cells were seeded in 10 cm dishes for all samples. […] For each condition, six samples were prepared; one of which was used to count the number of cells at the end of the sample preparation. Free metabolites were obtained by methanol extraction: After washing the samples with ice-cold PBS, they were placed in liquid nitrogen for 2 min, followed by mixing the samples cooled on ice with 5 mL methanol. The samples were mixed for 15 min at 4 °C, and centrifuged at 2.5 × g for 30 min at 4 °C. The solvent was removed by evaporation with a N2 gas flow over 5 h on ice, followed by freeze-drying under vacuum. The remaining pellet was dissolved in 700 µL D2O, and transferred to a 5 mm borosilicate NMR tube. NMR experiments were performed with a BRUKER AVANCE NEO 600 spectrometer operating at 600.13 MHz for ^1H detection equipped with a cryogenic NMR probe offering enhanced sensitivity. The ^1H NMR spectra were acquired using a double watergate pulse sequence with excitation sculpting for water suppression. A relaxation delay of 4 s was sufficient. The π and π/2 pulses performed with a radio frequency power of 62.5 kHz were combined with 2 ms selective rectangular shape pulses optimized for efficient suppression of the H2O ^1H resonance, which was chosen as the transmitter frequency. The two blocks of gradient pulses were conducted over 1 ms per pulse using gradients of 0.155 T/m and 0.055 T/m with a smoothed rectangular shape profile (SMSQ10.100). Signal averaging was achieved over 512 scans using an acquisition time of 1.38 s. Acquisition and pre-processing of NMR spectra was performed under the control of a workstation with TopSpin 4.0.7. Data processing included Fourier transformation, zero order phase correction, 1 Hz line broadening using a Lorentzian window function and automatic baseline correction with a polynomial of fifth degree. A 9 mmol/L aqueous sucrose solution was used as a calibration compound to calibrate an ERETIC2 reference for absolute concentration determination[66],[67]. Based on the sucrose reference, an electronic signal was placed in each ^1H spectrum to calibrate the deconvolution software Chenomx NMR suite. A standard protocol for quantitative NMR was applied: The signal corresponding to the calibration compound was integrated and normalized according to the number of protons of this compound. The unknown concentration of compound x in the presence of the calibration compound was calculated according to: Cx=Ix/IcalNcal/NxCcal
With I, N, and C being the integral area, number of nuclei, or concentration of the calibration (cal) or the targeted compound (x), respectively. Due to spectral superposition, glycerol-3-phosphate could not be quantified in ^1H NMR spectra. Therefore, we conducted ^31P - ^1H HMBC 2D experiments and quantified glycerol-3-phosphate using the phosphorylcholine peak and the respective concentration known from ^1H NMR spectra. […] Three gradient pulses were used (sequence hmbcgpndqf) over 1 ms each with gradient strengths of 0.06 T/m, 0.06 T/m and 0.05 T/m. The relaxation delay was set to 2 s, the acquisition time to 0.328 s. […] Data processing was achieved as described above except for the Qsine window function in both dimensions. All measurements were performed at 7 °C.

## O=C(Nc1ccccc1C(=O)O)c1ccc(Oc2ccc(C(=O)Nc3ccccc3C(=O)O)cc2)cc1 [CP1]
NT5C1A; CP log[M] -4.09691
  remaining activity at 80 µM: 12.2%
NT5C1A; CP log[M] -4.22185
  remaining activity at 60 µM: 13.1%
NT5C1A; CP log[M] -4.30103
  remaining activity at 50 µM: 13.1%
NT5C1A; CP log[M] -4.39794
  remaining activity at 40 µM: 16.3%
NT5C1A; CP log[M] -4.52288
  remaining activity at 30 µM: 38.9%
NT5C1A; CP log[M] -4.60206
  remaining activity at 25 µM: 50.7%
NT5C1A; CP log[M] -4.69897
  remaining activity at 20 µM: 57%
NT5C1A; CP log[M] -4.82391
  remaining activity at 15 µM: 83.3%
NT5C1A; CP log[M] -5
  remaining activity at 10 µM: 90.5%
NT5C1A; CP log[M] -5.30103
  remaining activity at 5 µM: 104%
NT5C1A; CP log[M] -5.60206
  remaining activity at […]: 86.9%
HT1080 cells; HT1080 cells, 3 h, 33 µM CP1
  change of acetate levels: −42%
  change of alanine levels: −52%
  change of lactate levels: −45%
  change of pyruvate levels: −10%
HT1080 cells; T3: 3h CP1-treated, Exp #1-5
  1-Methylnicotinamide (NMR metabolite level): 0.0004582 and 0.0004235 and 0.0007003 and 0.0006519 and 0.0004828
  2-Hydroxyglutarate (NMR metabolite level): 0.01261 and 0.01491 and 0.01314 and 0.01427 and 0.01273
  ATP (NMR metabolite level): 0.001497 and 0.001391 and 0.001868 and 0.001572 and 0.001599
  Acetic acid (NMR metabolite level): 0.004551 and 0.004658 and 0.004836 and 0.004678 and 0.004285
  Choline (NMR metabolite level): 0.0005498 and 0.0005142 and 0.0005336 and 0.0006902 and 0.0006337
  Creatine (NMR metabolite level): 0.00675 and 0.006504 and 0.00667 and 0.008321 and 0.006277
  D-Glucose (NMR metabolite level): 0.1212 and 0.1286 and 0.1124 and 0.1017 and 0.1229
  Dimethylamine (NMR metabolite level): 0.03604 and 0.03364 and 0.02538 and 0.0283 and 0.03615
  Formic acid (NMR metabolite level): 0.001497 and 0.001482 and 0.001868 and 0.001994 and 0.001569
  Fumaric acid (NMR metabolite level): 0.0003054 and 0.0002722 and 0.0003001 and 0.0003451 and 0.0003319
  Glutathione (NMR metabolite level): 0.01109 and 0.01041 and 0.01101 and 0.01265 and 0.01144
  Glycerol 3-phosphate (NMR metabolite level): 0.005205 and 0.004086 and 0.005958 and 0.005982 and 0.004016
  Glycine (NMR metabolite level): 0.01387 and 0.01388 and 0.01587 and 0.01515 and 0.01301
  Histidine (NMR metabolite level): 0.001863 and 0.001573 and 0.001667 and 0.001611 and 0.00166
  L-Alanine (NMR metabolite level): 0.003726 and 0.003932 and 0.003735 and 0.003681 and 0.003651
  L-Arginine (NMR metabolite level): 0.003085 and 0.0036 and 0.003035 and 0.003183 and 0.004798
  L-Aspartic acid (NMR metabolite level): 0.006078 and 0.006201 and 0.007304 and 0.006941 and 0.006337
  L-Glutamic acid (NMR metabolite level): 0.03955 and 0.04114 and 0.04112 and 0.04632 and 0.04125
  L-Glutamine (NMR metabolite level): 0.1032 and 0.09634 and 0.112 and 0.1011 and 0.1019
  L-Isoleucine (NMR metabolite level): 0.008064 and 0.008046 and 0.007837 and 0.007708 and 0.008178
  L-Lactic acid (NMR metabolite level): 0.03287 and 0.03079 and 0.03432 and 0.03474 and 0.0328
  L-Leucine (NMR metabolite level): 0.008094 and 0.008077 and 0.008637 and 0.008321 and 0.007846
  L-Lysine (NMR metabolite level): 0.005651 and 0.005687 and 0.005569 and 0.005062 and 0.005432
  L-Methionine (NMR metabolite level): 0.002474 and 0.002571 and 0.002635 and 0.002454 and 0.002656
  L-Phenylalanine (NMR metabolite level): 0.004704 and 0.004749 and 0.004702 and 0.00464 and 0.004708
  L-Threonine (NMR metabolite level): 0.0135 and 0.01422 and 0.01357 and 0.01411 and 0.01304
  L-Tyrosine (NMR metabolite level): 0.004795 and 0.004537 and 0.004569 and 0.004755 and 0.004798
  L-Valine (NMR metabolite level): 0.007911 and 0.008379 and 0.00757 and 0.007631 and 0.008117
  NAD+ (NMR metabolite level): 0.001405 and 0.001331 and 0.001634 and 0.001764 and 0.001509
  Phosphocreatine (NMR metabolite level): 0.002352 and 0.00245 and 0.002668 and 0.002838 and 0.002474
  Phosphorylcholine (NMR metabolite level): 0.007361 and 0.007078 and 0.008004 and 0.008743 and 0.00688
  Pyroglutamate (NMR metabolite level): 0.007789 and 0.006927 and 0.008071 and 0.008015 and 0.007303
  Pyruvate (NMR metabolite level): 0.004887 and 0.004931 and 0.004602 and 0.004755 and 0.004949
  Serine (NMR metabolite level): 0.006414 and 0.007411 and 0.00707 and 0.007401 and 0.006729
  Succinic acid (NMR metabolite level): 0.001344 and 0.001543 and 0.001501 and 0.001841 and 0.001207
  Taurine (NMR metabolite level): 0.006506 and 0.007653 and 0.005636 and 0.009663 and 0.004858
  Tryptophan (NMR metabolite level): 0.0008552 and 0.0007865 and 0.0009671 and 0.0008436 and 0.0007846
  UDP-N-Acetylglucosamine (NMR metabolite level): 0.00171 and 0.001573 and 0.002001 and 0.002147 and 0.00178
  UDP-glucose (NMR metabolite level): 0.0008858 and 0.0008772 and 0.001067 and 0.000997 and 0.0009053
  myo-Inositol (NMR metabolite level): 0.01161 and 0.01092 and 0.01214 and 0.0158 and 0.01228
HT1080 cells; T24: 24h CP1-treated, Exp #1-5
  1-Methylnicotinamide (NMR metabolite level): 0.0006688 and 0.0007226 and 0.00078 and 0.0009117 and 0.0008029
  2-Hydroxyglutarate (NMR metabolite level): 0.01123 and 0.01613 and 0.01677 and 0.01849 and 0.01776

From paper PMC9652372, “Glycolytic flux control by drugging phosphoglycolate phosphatase” (Nature Communications, 2022)
